According to patent publication US12569473B2, “Methods to treat respiratory infection utilizing castanospermine analogs” (60 Degrees Pharmaceuticals, Inc., priority 2022, dated 2026):
pEC50: −log10 of the molar value. Structures can show the parent of a compound that is named as a salt. Where two headings read alike, the source gives them in different places.

What was measured:
[1] = Cytotoxicity, neutral red assay, MA-104 cells; type: cell-based; settings: African green monkey, MA-104 cells (embryonic African green monkey kidney), unit inferred
Procedure: (§1) The efficacy of celgosivir and castanospermine against RSV and human rhinovirus-14 was assessed in vitro. For RSV studies, embryonic African green monkey kidney cells (MA-104) were grown in minimal essential medium (MEM) supplemented with 0.1% NaHCO3 and 10% fetal bovine serum. When performing antiviral assays, serum was reduced to 2% and […] gentamicin was added to the medium. RSV strain A2 was used for the studies. For rhinovirus studies, the HeLa Ohio cell line was used in place of MA-104 cells.
(§2) CPE inhibition assays with visual quantification of antiviral activity and cytotoxicity were performed as described by Sidwell and Huffman (1971) with slight modifications. Sidwell, R. W. and Huffman, J. H. (1971) Use of disposable micro-tissue culture plates for antiviral and interferon induction studies. Appl. Microbiol. 22, […]. […] All compounds were assayed for virus inhibition in quadruplicate and for cytotoxicity in duplicate. For rhinovirus studies, Pirodavir was applied at a concentration of 0.001-1 μg/ml as the positive control compound. For RSV studies, the positive control compound was Ribavirin applied at a concentration of 0.5-500 μg/ml. For each compound, two wells were set aside as uninfected, untreated cell controls per test and four wells per test received virus only and represented controls for virus replication. […] A selective index (S.I.) was calculated for each compound (SI.=(IC50)/(EC50)).
(§3) Neutral red assay of CPE inhibition and cytotoxicity was performed by a modified method as described by Cavenaugh et al. (1990). […] Briefly, medium was removed from each well of a plate scored for CPE from the visual CPE inhibition assay, 0.2 ml of neutral red (0.034% in PSS) was added to each of the wells of that plate and the plate incubated for 2 h at 37° C. in the dark. […] Absorbances at 540 and 450 nm were read with a microplate reader (Bio-Tek EL 1309; Bio-Tek Instruments). […] Absorbance values were expressed as percentages of untreated controls and EC50 and IC50 values were calculated by regression analysis

[2] = system: RSV strain A2; experiment: Neutral red assay of CPE inhibition, RSV; type: cell-based; settings: human respiratory syncytial virus, MA104, MA-104 cells, unit inferred; for pEC50: compounds tested at 0.3, 3, 30 and 300 microM
Procedure: as §1, §2, §3

[3] = system: RSV strain A2; experiment: CPE inhibition assay, visual examination, RSV; type: cell-based
Procedure: as §1
(§4) CPE inhibition assays with visual quantification of antiviral activity and cytotoxicity were performed as described by Sidwell and Huffman (1971) with slight modifications. Sidwell, R. W. and Huffman, J. H. (1971) Use of disposable micro-tissue culture plates for antiviral and interferon induction studies. Appl. Microbiol. 22, […]. […] All compounds were assayed for virus inhibition in quadruplicate and for cytotoxicity in duplicate. For rhinovirus studies, Pirodavir was applied at a concentration of 0.001-1 μg/ml as the positive control compound. For RSV studies, the positive control compound was Ribavirin applied at a concentration of 0.5-500 μg/ml. For each compound, two wells were set aside as uninfected, untreated cell controls per test and four wells per test received virus only and represented controls for virus replication. […] For all CPE-based assays, the 50% effective concentration (EC50) was calculated by regression analysis using the means of the CPE ratings at each concentration of compound. Morphological changes due to compound cytotoxicity were graded on a scale of 0-5; grade 5 was defined as 100% cytotoxicity. The 50% cytotoxic dose (IC50) was calculated by regression analysis. A selective index (S.I.) was calculated for each compound (SI.=(IC50)/(EC50)).

[4] = Cytotoxicity, visual examination, MA-104 cells; type: cell-based, African green monkey; settings: African green monkey
Procedure: as §1, §4

[5] = cited from earlier work
[6] = Cytotoxicity, visual examination, HeLa Ohio cells; type: cell-based; settings: human, unit inferred
Procedure: as §1, §4

[7] = system: human rhinovirus-14; experiment: CPE inhibition assay, visual examination, human rhinovirus-14; type: cell-based; settings: for efficacy against human rhinovirus-14: at the concentrations tested (0.3-300 microM); for pEC50: compounds tested at 0.3, 3, 30 and 300 microM
Procedure: as §1, §4

[8] = Cytotoxicity, neutral red assay, HeLa Ohio cells; type: cell-based; settings: human, unit inferred
Procedure: as §1, §2, §3

[9] = mice; 50 mg/kg BID dose; cited from earlier work
[10] = system: human rhinovirus-14; experiment: Neutral red assay of CPE inhibition, human rhinovirus-14; type: cell-based; settings: HeLa Ohio cells, unit inferred; for pEC50: compounds tested at 0.3, 3, 30 and 300 microM
Procedure: as §1, §2, §3

[11] = system: embryonic African green monkey kidney cells (MA-104); experiment: Cytotoxicity, visual examination, MA-104 cells; type: cell-based
Procedure: as §1, §4

[12] = system: RSV [strain A/A2]; experiment: Pulmonary histopathology in RSV-infected cotton rats; type: in vivo, Cotton rats [Sigmodon hispidus]; settings: for lung histopathology scores (RSV-induced inflammation): Day 5 post infection, celgosivir 25, 50 or 100 mg/kg BID from one day before or after infection, synagis 2.5 mg/kg i.m. once per day, vs vehicle
Procedure: (§5) Cotton rats [Sigmodon hispidus, 2 male & 3 female, 6-8 weeks old] provided with standard rodent chow and water ad lib, were infected intranasally with RSV [strain A/A2, 10^5 pfu] on Day 0. Animals received celgosivir [25, 50 or 100 mg/kg BID for total daily doses of 50, 100 or 200 mg/kg] daily beginning one day before or after infection and were sacrificed on Day 5-post-infection for histopathology, qPCR, and viral load assessment. Control groups included a [i] positive control Synagis [2.5 mg/kg, i.m, once per day from the first day post-infection], [ii] vehicle control in which vehicle was administered twice per day beginning one day prior to RSV infection, [iii] a vehicle control group that were mock-infected with PBS for which treatment was initiated beginning one day prior to infection, and [iv] an untreated group mock infected with PBS that received no treatment. Animals were weighed on Day −1 and Day 5, and plasma was obtained by retro-orbital bleed on the same days.
(§6) The RSV strain for inoculation [A/A2 (RSV A/A2) (ATCC, Manassas, VA)] was propagated in HEp-2 cells after serial plaque-purification to reduce defective-interfering particles. A pool of virus designated containing approximately 3.0×10^8 pfu/mL in sucrose stabilizing media was used in the experiment. This stock of virus was stored at −80° C. and was previously characterized in vivo in the cotton rat model and validated for upper and lower respiratory tract replication.
Pulmonary Histopathology: Lungs were removed and inflated with 10% neutral buffered formalin to their normal volume, then fixed [using the same solution]. After fixation, lungs were embedded in paraffin, sectioned, and stained with H&E. Four parameters of pulmonary inflammation were evaluated: peribronchiolitis (inflammatory cell infiltration around the bronchioles), perivasculitis (inflammatory cell infiltration around the small blood vessels), interstitial pneumonia (inflammatory cell infiltration and thickening of alveolar walls), and alveolitis (cells within the alveolar spaces). Slides were blindly scored on a 0-4 severity scale. The scores are subsequently converted to a 0-100% normalized scale.
Statistics: Group means for each parameter were evaluated by one-way ANOVA, then individual group means were compared [t-test, with multiple comparison correction] to the RSV-infected, vehicle-treated control group. P<0.05 was considered statistically significant.

[13] = system: RSV [strain A/A2]; experiment: Nose and lung viral titers in RSV-infected cotton rats; type: in vivo, Cotton rats [Sigmodon hispidus]; settings: Day 5 post infection, celgosivir 25, 50 or 100 mg/kg BID from one day before or after infection, synagis 2.5 mg/kg i.m. once per day, vs vehicle
Procedure: as §5, §6
Viral Titers: Nose and lung homogenates were centrifuged and diluted in EMEM. Confluent HEp-2 monolayers were infected in duplicate with diluted homogenates in 24-well plates. Following one hour incubation at 37° C. […] Plaques were counted and virus titer determined as geometric mean plaque-forming units per gram of tissue±standard error for all animals in a group at a given time.
Statistics: Group means for each parameter were evaluated by one-way ANOVA, then individual group means were compared [t-test, with multiple comparison correction] to the RSV-infected, vehicle-treated control group. […]

[14] = Pharmacokinetic simulations using CELADEN study parameters; set-up: species or system human; settings: linear extrapolation
Procedure: It is known that a steady state minimum castanospermine concentration of 400 nanograms/ml is associated with a 50 mg/kg BID dose in mice and that the antiviral effect of celgosivir in vivo seems to be correlated with the minimum steady state concentration of castanospermine (Watanabe et al). […] International Publication No. WO 2014/143907 discloses pharmacokinetic parameters for castanospermine for the CELADEN study. […] Extrapolating linearly, therefore, the minimum protective dose (achieving 400 nanograms/ml steady state minimum) is approximately 40 mg every 6 h, 75 mg every 8 h and 225 mg every 12 h. Further, WO 2014/143907 discloses that the CELADEN study regimen produce a steady state maximum castanospermine concentration of 5100 nanograms/ml. […] The FDA has published generic scaling factors to adjust mg/kg dosing in animals to mg/kg dosing in humans. Generically for mice, that scaling factor is 12. Therefore, 50 mg/kg BID is equivalent to a dose of 4.2 mg/kg BID in humans, which for a 60 kg human is equivalent to 250 mg. The same dose administered three or four times daily is equivalent to 167 mg and 125 mg and 2.8 and 2.1 mg/kg respectively. In a 60 kg human, the maximum single dose is 6.7 mg/kg, and the maximum daily dose is 10 mg/kg.

[15] = literature (Sorbera et al); cited from earlier work
[16] = positive control applied at 0.5-500 μg/ml
[17] = compounds tested at 0.3, 3, 30 and 300 microM
[18] = visual examination, HeLa Ohio cells, unit inferred
[19] = human respiratory syncytial virus, MA104, visual examination, MA-104 cells, compounds tested at 0.3, 3, 30 and 300 microM, unit inferred
[20] = positive control applied at 0.001-1 μg/ml
[21] = in theory, CELADEN study, confirming literature

With `NC(=O)c1ncn([C@@H]2O[C@H](CO)[C@@H](O)[C@H]2O)n1` [Ribavirin, reference compound] the CC50 at 6 days [1, 16] was 62 µg/mL, the EC50 [2, 16] was 2.8 µg/mL and the EC50 ([3]; human respiratory syncytial virus, MA104, visual examination, MA-104 cells, positive control applied at 0.5-500 μg/ml, unit inferred) was 4 µg/mL. It also gave a CC50 at 6 days ([4]; MA-104 cells (embryonic African green monkey kidney), visual examination, MA-104 cells, positive control applied at 0.5-500 μg/ml, unit inferred, read-out: CC50) of 340 µg/mL.

For `O[C@H]1[C@H](O)[C@@H](O)CN2CC[C@H](O)[C@H]12` [Castanospermine], the “steady state maximum castanospermine concentration” value ([5]; CELADEN study regimen) is listed as 5100 nanograms/ml, the CC50 at 6 days [1, 17] is listed as > 300 µM and the CC50 at 6 days [6, 17] is listed as > 300 µM. The “efficacy against human rhinovirus-14” value [7] was “Neither celgosivir nor castanospermine were determined to be efficacious”, the pEC50 [7, 18] was < 3.52 and the CC50 at 6 days [8, 17] was > 300 µM. For the same compound, the pEC50 [2] was < 3.52, the pEC50 [3, 19] was < 3.52 and the “steady state minimum castanospermine concentration” value [9] was 400 nanograms/ml. For the same compound, the pEC50 [10] was < 3.52, the CC50 at 6 days ([4]; CC50) was > 300 µM and the “safety in vitro (CC50 above the highest concentration tested)” value [11] was “safe at all concentrations tested”.

For `CCOC(=O)c1ccc(OCCC2CCN(c3ccc(C)nn3)CC2)cc1` [Pirodavir, reference compound], the CC50 at 6 days [6, 20] was > 1 µg/mL, the EC50 ([7]; visual examination, HeLa Ohio cells, positive control applied at 0.001-1 μg/ml, unit inferred) was 0.032 µg/mL and the CC50 at 6 days [8, 20] was > 1 µg/mL. For the same compound, the EC50 [10, 20] was 0.031 µg/mL.

With “Synagis: positive control in cotton rat RSV study, 2.5 mg/kg i.m. once per day” the “lung histopathology scores (RSV-induced inflammation)” value (“lung histopathology scores” for short) [12] was “statistically significant reductions across all four histopathology domains” and the “nasal and lung viral titer” value [13] was “decrease viral titer”.

In the case of `CCCC(=O)O[C@H]1CN2CC[C@H](O)[C@@H]2[C@@H](O)[C@@H]1O` [Celgosivir HCL], the “minimum protective dose (achieving 400 nanograms/ml steady state minimum)” value (“minimum protective dose” for short) ([14]; every 6 h) was “approximately 40 mg”, the “minimum protective dose” value ([14]; every 8 h) was ~75 mg and the “minimum protective dose” value ([14]; every 12 h) was ~225 mg. The adverse event profile ([5]; CELADEN study regimen) was “higher incidence of GI effects, but not increased severity”, the “maximum daily dose as a total dose” value [5, 21] was ≤ 600 mg and the “maximum dose as a single dose” value [5, 21] was ≤ 400 mg. For the same compound, the “lung histopathology scores” value ([12]; listed as Celgosivir) was “reduced inflammation at all doses on three of four histopathology parameters”, the “lung histopathology scores” value ([12]; listed as celgosivir) was “reduced for at least one domain for all doses” and the “impact of timing of administration on degree of protection against inflammation” value ([12]; dosing begun one day prior to vs one day after infection (FIG. 1)) was “minimal impact”. For the same compound, the “nasal and lung viral titer” value ([13]; listed as Celgosivir) was “no effect on viral titer in either the nose or the lung”, the “nasal and lung viral titer” value ([13]; listed as celgosivir) was “did not” and the CC50 at 6 days [1, 17] was > 300 µM. For the same compound, the “pharmacokinetics, dose linearity” value [15] was “linear with dose over the tolerated dose range”, the CC50 at 6 days [6, 17] was > 300 µM and the “efficacy against human rhinovirus-14” value [7] was “Neither celgosivir nor castanospermine were determined to be efficacious”. The pEC50 [7, 18] was < 3.52, the CC50 at 6 days [8, 17] was > 300 µM and the pEC50 [2] was 4.47. The pEC50 [3, 19] was 4.43, the pEC50 ([3]; human respiratory syncytial virus, against RSV, text summary over visual and neutral red assays, unit inferred) was 4.43 to 4.47 and the “efficacy against RSV infection” value ([3]; in vitro) was “efficacious”. For the same compound, the pEC50 [10] was < 3.52, the CC50 at 6 days ([4]; MA-104 cells (embryonic African green monkey kidney), RSV studies, text summary over visual and neutral red assays, unit inferred, read-out: CC50) was ≥ 300 µM and the CC50 at 6 days ([4]; MA-104 cells (embryonic African green monkey kidney), visual examination, MA-104 cells, compounds tested at 0.3, 3, 30 and 300 microM, unit inferred, read-out: CC50) was > 300 µM. The “safety in vitro (CC50 above the highest concentration tested)” value ([11]; all concentrations tested (0.3-300 microM), text summary of the cytotoxicity assays) was “safe at all concentrations tested”.
